According to patent publication US9303033B2, “Pyrazolopyrimidines and related heterocycles as CK2 inhibitors” (SENHWA BIOSCIENCES, INC., priority 2009, dated 2016):
Like-named read-outs stand apart in the source and are kept apart here.

Tests used:
CK2 ααββ = CK2 ααββ (Homo sapiens (Human), UniProt P68400); assay: CK2 assay (cell-free, 33P-ATP, phosphocellulose filter plate); format: biochemical
recombinant human PIM2 = recombinant human PIM2 (Homo sapiens (Human), UniProt Q9P1W9); assay: PIM-2 assay (33P-ATP filter binding); format: biochemical; conditions: for PIM2: % inh […]: at […] compound
recombinant human PIM2, sequence (Q9P1W9 whole entry): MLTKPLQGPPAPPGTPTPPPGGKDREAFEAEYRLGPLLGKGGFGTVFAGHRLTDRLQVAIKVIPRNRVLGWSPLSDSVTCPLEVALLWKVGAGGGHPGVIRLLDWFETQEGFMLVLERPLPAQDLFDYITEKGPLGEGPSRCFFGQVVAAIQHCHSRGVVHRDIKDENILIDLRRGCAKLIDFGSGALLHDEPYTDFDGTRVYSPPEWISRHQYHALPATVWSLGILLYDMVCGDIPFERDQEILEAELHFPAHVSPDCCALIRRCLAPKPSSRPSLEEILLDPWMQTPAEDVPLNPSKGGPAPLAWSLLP

MDAMB453 = assay: Cell proliferation assay with Alamar Blue (AB), MDAMB453; format: cell-based
Description: (§1) A representative cell-proliferation assay protocol using Alamar Blue dye (stored at 4° C., use 20 ul per well) is described hereafter.
(§2) a. Split and trypsinize cells.
(§3) b. Count cells using hemocytometer.
(§4) c. Plate 4,000-5,000 cells per well in 100 μl of medium and seed into a 96-well plate according to the following plate layout. Add cell culture medium only to wells B10 to B12.
(§5) d. Add 100 μl of 2× drug dilution to each well in a concentration shown in the plate layout above. […] Total volume is 200 μl/well.
(§6) e. Incubate four (4) days at 37° C., 5% CO2 in a humidified incubator.
(§7) f. Add […] Alamar Blue reagent to each well.
(§8) g. Incubate for four (4) hours at 37° C., 5% CO2 in a humidified incubator.
(§9) h. Record fluorescence at an excitation wavelength of 544 nm and emission wavelength of 590 nm using a microplate reader.
(§10) In the assays, cells are cultured with a test compound for approximately four days, the dye is then added to the cells and fluorescence of […] dye is detected after approximately four hours. Different types of cells can be utilized in the assays (e.g., HCT-116 human colorectal carcinoma cells, PC-3 human prostatic cancer cells, MDA-MB231 human breast cancer cells, K-562 human chronic myelogenous leukemia (CML) cells, MiaPaca human pancreatic carcinoma cells, MV-4 human acute myeloid leukemia cells, and BxPC3 human pancreatic adenocarcinoma cells).

[1] = test system: BxPC3 human pancreatic adenocarcinoma cells; assay: Cell proliferation assay with Alamar Blue (AB), BxPC3; format: cell-based
Description: as §1, §2, §3, §4, §5, §6, §7, §8, §9, §10

[2] = PIM2: IC50 (5 μM ATP), 5 μM ATP
[3] = Homo sapiens, MDA-MB-453, MDAMB453 cells, read-out: AB: MDAMB453
[4] = Homo sapiens, BXPC-3, read-out: AB: BxPC3
[5] = MDAMB453 cells, read-out: AB: MDAMB453 IC50

CK2 ααββ, sequence (P68400 whole entry): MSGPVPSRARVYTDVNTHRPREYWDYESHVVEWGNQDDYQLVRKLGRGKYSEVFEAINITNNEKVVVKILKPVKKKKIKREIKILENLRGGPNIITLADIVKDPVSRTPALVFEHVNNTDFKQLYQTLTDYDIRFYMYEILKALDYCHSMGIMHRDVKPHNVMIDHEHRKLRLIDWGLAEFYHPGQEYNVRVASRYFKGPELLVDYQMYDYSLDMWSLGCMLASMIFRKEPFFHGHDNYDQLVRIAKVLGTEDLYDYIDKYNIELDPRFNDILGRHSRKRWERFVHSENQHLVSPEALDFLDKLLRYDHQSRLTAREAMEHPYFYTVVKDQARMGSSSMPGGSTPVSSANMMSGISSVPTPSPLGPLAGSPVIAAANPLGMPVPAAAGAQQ
CK2 ααββ, sequence (P67870 whole entry partner): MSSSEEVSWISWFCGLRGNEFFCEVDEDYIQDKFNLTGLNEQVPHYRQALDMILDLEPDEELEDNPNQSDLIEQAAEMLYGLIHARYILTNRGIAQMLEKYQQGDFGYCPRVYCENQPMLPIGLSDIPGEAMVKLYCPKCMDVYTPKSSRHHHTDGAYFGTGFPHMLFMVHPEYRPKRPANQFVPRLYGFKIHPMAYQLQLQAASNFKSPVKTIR

Compound | IC50 (CK2 ααββ) [nM] | IC50 (recombinant human PIM2; [2]) [nM] | IC50 (MDAMB453; [3]) [nM] | IC50 [1, 4] [nM] | IC50 (recombinant human PIM2; Tables 41B, 42B, read-out: PIM2: IC50) [nM] | IC50 (MDAMB453; [5]) [nM] | IC50 ([1]; read-out: AB: BxPC3 IC50) [nM] | PIM2: % inh […] (recombinant human PIM2) [%]
O=C1NC(=O)/C(=C/c2cnn3c(NC4CC4)cc(-c4cccc(OCC(=O)N5CCCC5)c4)nc23)N1 [Example H4] | < 10 | > 2500 | 1960 | 14500 |  |  |  | 
O=C1NC(=O)/C(=C/c2cnn3c(NCC4CC4)cc(Nc4ccc(Cl)nc4)nc23)N1 [Example X1] | < 100 | > 2500 | 6940 | 7990 |  |  |  | 
C=CCOc1cccc(-c2cc(NC3CC3)n3ncc(/C=C4\NC(=O)NC4=O)c3n2)c1 [Example E4] | < 10 | > 2500 | 1170 | 11800 |  |  |  | 
CN(C)c1ccc(-c2cc(NC3CC3)n3ncc(/C=C4\NC(=O)NC4=O)c3n2)cn1 [Example P4] | < 10 | 75.4 | 5280 | 549 |  |  |  | 
O=C1NC(=O)/C(=C/c2cnn3c(NC4CC4)cc(NCC4CC4)nc23)N1 [Example T2] | < 10 | 998 | 2490 | 6900 |  |  |  | 
O=C1NC(=O)/C(=C/c2cnn3c(NCC(F)(F)F)cc(Nc4cccc(Cl)c4)nc23)N1 [Example O6] | < 10 | > 2500 | 1140 | > 30000 |  |  |  | 
O=C1NC(=O)/C(=C/c2cnn3c(NC4CCN(C(=O)C5CC5)CC4)cc(Nc4cccc(Cl)c4)nc23)N1 [Example L5] | < 10 | > 2500 | 993 | 2400 |  |  |  | 
O=C1NC(=O)C(=Cc2cnn3c(NC4CC4)cc(Nc4ccc(OCCN5CCOCC5)cc4F)nc23)N1 [Example S42] | < 10 |  |  |  |  | 2740 | 5000 | 44.49
CN(C)c1ccc(-c2cc(NC3CC3)n3ncc(/C=C4\NC(=O)NC4=O)c3n2)cc1 [Example I4] | < 100 | > 2500 | 683 | 1900 |  |  |  | 
CN(C)CCCOc1cccc(-c2cc(NC3CC3)n3ncc(/C=C4\NC(=O)NC4=O)c3n2)c1 [Example Z3] | < 10 | 2210 | 284 | 2920 |  |  |  | 
O=C1NC(=O)/C(=C/c2cnn3c(NC4CC4)cc(-c4ccnc(F)c4)nc23)N1 [Example O4] | < 10 | > 2500 | 17100 | 1230 |  |  |  | 

Results, then the compound that gave them:

IC50 (CK2 ααββ) [nM] | IC50 (recombinant human PIM2; [2]) [nM] | IC50 (MDAMB453; [3]) [nM] | IC50 [1, 4] [nM] | IC50 (recombinant human PIM2; Tables 41B, 42B, read-out: PIM2: IC50) [nM] | IC50 (MDAMB453; [5]) [nM] | IC50 ([1]; read-out: AB: BxPC3 IC50) [nM] | PIM2: % inh […] (recombinant human PIM2) [%] | Compound
< 10 | > 2500 | 11800 | 9930 |  |  |  |  | Nc1cc(NC2CC2)n2ncc(/C=C3\NC(=O)NC3=O)c2n1 [Example K2]
< 10 | > 2500 | 1980 | 2250 |  |  |  |  | CCCCS(=O)(=O)Nc1cccc(-c2cc(NC3CC3)n3ncc(/C=C4\NC(=O)NC4=O)c3n2)c1 [Example Y4]
< 1000 | 198 | > 30000 | 19000 |  |  |  |  | NCc1cccc(-c2cc(NC3CC3)n3ncc(/C=C4\SC(=O)NC4=O)c3n2)c1 [Example J5]
< 100 | > 2500 | 5090 | 6190 |  |  |  |  | O=C1NC(=O)/C(=C/c2cnn3c(NCC4CC4)cc(Nc4cccnc4)nc23)N1 [Example V1]
< 10 |  |  |  | > 2500 | 1380 | 5200 |  | N#Cc1ccc(Oc2cc(NC3CC3)n3ncc(C=C4NC(=O)NC4=O)c3n2)c(Cl)c1 [Compound V38]
< 100 |  |  |  |  | 16600 | 20900 | 49.545 | Cc1c(Nc2ccc(-n3cccn3)cc2)nc2c(/C=C3\NC(=O)NC3=O)cnn2c1NC1CC1 [Example E46]
< 10 | > 2500 | 1050 | 23600 |  |  |  |  | N#Cc1cccc(-c2cc(NC3CC3)n3ncc(/C=C4\NC(=O)NC4=O)c3n2)c1 [Example D4]
< 100 | 2400 | 1490 | 3280 |  |  |  |  | CS(=O)(=O)Nc1cccc(-c2cc(NC3CC3)n3ncc(/C=C4\NC(=O)NC4=O)c3n2)c1 [Example C4]
